Measured values taken from patent US4151300A, “Acetohydroxamic acids” (Laboratoire L. Lafon, priority 1976, dated 1979).

What was measured:
mice [1] = assay: motility reduced by habituation to a cage (residual motility); assay type: in vivo; settings: i.p.
Procedure: (§1) The following text summarises a part of the results of the tests which were carried out with the products according to the invention, these products (unless otherwise stated) being administered intraperitoneally, in suspension in a gum solution (gum arabic), in a volume of 20 ml/kg in the case of mice and of 5 ml/kg in the case of rats.
Mice which have remained for 18 hours in the actimeters are given CRL 40,373. They are immediately replaced in their cages and, after a period of half an hour, their motility is recorded for 30 minutes (6 animals per dose, 12 comparison animals).
After remaining for 18 hours in the actimeters, the mice receive CRL 40,385. Immediately afterwards they are replaced in their cage and half an hour afterwards the recording of the motility starts and is continued for 30 minutes.

mice [2] = assay: inter-group aggressiveness (number of fights); assay type: in vivo
Procedure: as §1
After three weeks' residence in each of the halves of a cage divided by an opaque partition, the mice receive CRL 40,373 thirty minutes before being brought together by withdrawing the partition.
After 18 days' residence on either side of a partition separating their cage in the middle, groups of 3 mice receive CRL 40,385 and are brought together half an hour later by withdrawing the partition, and the number of fights which take place in the course of 15 minutes is noted.

rats [3] = assay: interaction with amphetamine (stereotypies in rats); assay type: in vivo; settings: i.p.
Procedure: as §1
30 minutes after the administration of CRL 40,373, amphetamine is injected intraperitoneally at a dose of 2 mg/kg.
Thirty minutes after the administration of CRL 40,385 the rats are given an intraperitoneal injection of 2 mg/kg of amphetamine (6 animals per dose).

mice [4] = assay: spontaneous motility (actimeter); assay type: in vivo; settings: for spontaneous motility: i.p.
Procedure: as §1
Thirty minutes after having been given CRL 40,373, the mice (6 per dose, 12 comparison animals) are placed in an actimeter, where their motility is recorded for half an hour.
Thirty minutes after having been given CRL 40,385, the mice are placed in actimeters where their motility is recorded for half an hour.

mice [5] = assay: toxicity (isolated mice, intraperitoneal); assay type: in vivo
Procedure: as §1

central nervous system [6] = settings: prior art; cited from earlier work
mice [7] = assay: interaction with reserpine (hypothermia, ptosis); assay type: in vivo; settings: i.p.; for reserpine-induced hypothermia: 512 mg/kg
mice [8] = assay: interaction with oxotremorine (temperature, trembling, peripheral cholinergic symptoms); assay type: in vivo; settings: mice, i.p.
rats [9] = assay: interaction with apomorphine (stereotype behaviour in rats); assay type: in vivo; settings: rats, i.p.
Procedure: as §1
Batches of six rats are each given a subcutaneous injection of apomorphine (0.5 mg/kg) 30 minutes after the administration of CRL 40,373.
Batches of 6 rats are given a subcutaneous injection of 0.5 mg/kg of apomorphine 30 minutes after the administration of CRL 40,385.

mice [10] = assay: motility reduced by hypoxia treatment (motor recovery); assay type: in vivo; settings: for motor recovery after hypoxia/anoxia by pressure reduction: mice, i.p.
central nervous system [11] = assay: psychopharmacological study / behaviour; assay type: in vivo, mice; settings: high dose (256 mg/kg)

O=C(CC(=O)Nc1ccc(Cl)c(Cl)c1)NO [CRL 40,491, 3,4-Dichlorophenylcarbamoylacetohydroxamic acid]
motility reduced by habituation to the cage (mice [1]; 256 mg/kg): moderate resumption of the activity of mice habituated to their cage | inter-group aggressiveness (mice [2]; mice, i.p., 256 mg/kg): reduces the inter-group aggressiveness of mice | amphetamine-induced stereotypies (rats [3]; 256 mg/kg): reduces the intensity of amphetamine-induced stereotypies | spontaneous motility (mice [4]; mice, 512 mg/kg): reduction in the spontaneous motility of mice | LD-O (maximum non-lethal dose) (mice [5]; mice, i.p.): greater than 1,024 mg/kg | mortality (mice [5]; mice, i.p., 1,024 mg/kg, 24 hours after administration): no mortality 24 hours after administration

O=C(CN1C(=O)NC(c2ccc(Cl)cc2)(c2ccc(Cl)cc2)C1=O)NO [CRL 40,468, 3-(5,5-di-p-chlorophenyl-hydantoinyl)-acetohydroxamic acid]
aggressiveness (mice [2]; mice, i.p., large/high dose): reduces the number of fights | mortality (mice [5]; mouse, in vivo): found dead 24 hours after the injection | mortality (mice [5]; mouse, in vivo, ip, 512 mg/kg): no mortality is observed | symptoms / behaviour (mice [5]; mouse, in vivo, ip, 512 mg/kg): the symptoms are comparable

O=C(CC[S+]([O-])c1ccc(F)cc1)NO (centres unmarked) [3-(p-fluorophenylsulphinyl)-propionohydroxamic acid]
usefulness in therapy (central nervous system [6]): of interest in the treatment of the central nervous system

CC(C(=O)NO)N1C(=O)NC(c2ccccc2)(c2ccccc2)C1=O (centres unmarked) [CRL 40,447, 2-[3-(5,5-Diphenylhydantoinyl)]-propionohydroxamic acid]
spontaneous motility (mice [4]; mice, 512 mg/kg): reduces the spontaneous motility of mice | LD-O (maximum non-lethal dose) (mice [5]; mouse, in vivo, ip): greater than 1,024 mg/kg

O=C(C[S+]([O-])C(c1ccccc1)c1ccccc1)NO (stereo not drawn) [β-benzhydrylsulphinyl-acetohydroxamic acid]
usefulness in therapy (central nervous system [6]): of interest in the treatment of the central nervous system

O=C(CCC[S+]([O-])c1ccc(Cl)cc1)NO (centres unmarked) [4-(p-chlorophenylsulphinyl)-butyrohydroxamic acid]
usefulness in therapy (central nervous system [6]): of interest in the treatment of the central nervous system

O=C(C[S+]([O-])Cc1ccc(Cl)cc1)NO (stereo not drawn) [CRL 40,411, α-(Chlorobenzylsulphinyl)-acetohydroxamic acid]
LD-O (maximum non-lethal dose) (mice [5]; mice, i.p.): greater than 1,024 mg/kg

O=C(CNC(=O)C(c1ccccc1)c1ccccc1)NO [CRL 40,400, α-(Benzhydrylcarboxamido)-acetohydroxamic acid]
stereotypies induced by reserpine (mice [7]): does not modify the stereotypies | stereotypies induced by oxotremorine (mice [8]): does not modify the stereotypies | amphetamine-induced stereotypies (rats [3]; rats): does not modify the stereotypies induced in rats by apomorphine and amphetamine | motility (mice [4]; mice): acts on the motility of mice | apomorphine-induced stereotypies (rats [9]): does not modify the stereotypies induced in rats by apomorphine | mortality (mice [5]; isolated mice, i.p., 128, 256, 512 and 1,024 mg/kg): does not cause any mortality whatsoever

O=C(CCC[S+]([O-])c1ccc(F)cc1)NO (centres unmarked) [4-(p-fluorophenylsulphinyl)-butyrohydroxamic acid]
usefulness in therapy (central nervous system [6]): of interest in the treatment of the central nervous system

O=C(CC(O)COc1cccc2ccccc12)NO (stereo not drawn) [4-α-naphthyloxy-3-hydroxybutyrohydroxamic acid]
usefulness in therapy (central nervous system [6]): inactive in therapy

O=C(CNC(=O)Nc1ccccc1)NO [CRL 40,513, 5-Phenylureidoacetohydroxamic acid]
inter-group aggressiveness (mice [2]; mice, i.p.): anti-aggressive effect | motor recovery after hypoxia/anoxia by pressure reduction (mice [10]): improvement in the motor recovery of mice | LD-O (maximum non-lethal dose) (mice [5]; mouse, in vivo, ip): greater than 1,024 mg/kg | symptoms / behaviour (mice [5]; mouse, in vivo, ip): sedation and hypothermia

O=C(CCC[S+]([O-])c1ccccc1)NO (centres unmarked) [4-phenylsulphinylbutyrohydroxamic acid]
usefulness in therapy (central nervous system [6]): of interest in the treatment of the central nervous system

O=C(C[S+]([O-])Cc1cccc2ccccc12)NO (stereo not drawn) [CRL 40,475, α-Naphthylmethylene-sulphinyl-acetohydroxamic acid]
LD-O (maximum non-lethal dose) (mice [5]; mice, i.p.): greater than 1,024 mg/kg

CCC1(c2ccccc2)NC(=O)N(CC(=O)NO)C1=O (centres unmarked) [CRL 40,450, 3-(5-Ethyl-5-phenyl-hydantoinyl)-acetohydroxamic acid]
reserpine-induced hypothermia (mice [7]): aggravates the hypothermia induced by reserpine | temperature (oxotremorine-induced hypothermia) (mice [8]; 512 mg/kg): aggravates the hypothermia induced by reserpine and by oxotremorine | oxotremorine-induced trembling (mice [8]; high dose (512 mg/kg)): reduces the intensity of the trembling movements due to oxotremorine | inter-group aggressiveness (mice [2]; mice, i.p., 512 and 256 mg/kg): reduces the inter-group aggressiveness in mice | spontaneous motility (mice [4]; mice, 512 mg/kg): reduction in the spontaneous motility of mice | LD-O (maximum non-lethal dose) (mice [5]; mice, i.p.): greater than 1,024 mg/kg

O=C(CCC[S+]([O-])C(c1ccccc1)c1ccccc1)NO (centres unmarked) [4-benzhydrylsulphinyl-butyrohydroxamic acid]
usefulness in therapy (central nervous system [6]): of interest in the treatment of the central nervous system

O=C(Cc1nc2ccccc2n1-c1ccccc1)NO [CRL 40,490, 2-(1-Phenyl-benzimidazolyl)-acetohydroxamic acid]
LD-O (maximum non-lethal dose) (mice [5]; mice, i.p.): greater than 1,024 mg/kg

COc1cc(NC(=O)CC(=O)NO)cc(OC)c1OC [CRL 40,509, 3,4,5-Trimethoxyphenyl-carbamoyl-acetohydroxamic acid]
anti-aggressive effect (mice [2]; very low doses (8 and 16 mg/kg)): an effect of the anti-aggressive type | anti-anoxia effect (mice [10]; 64 and 128 mg/kg): an effect of the anti-anoxia type | sedation (central nervous system [11]): sedation

CCC(C(=O)NO)C(=O)N(c1ccccc1)c1ccccc1 (centres unmarked) [CRL 40,439, 2-(N,N-Diphenylcarbamoyl)-butyrohydroxamic acid]
reserpine-induced ptosis (mice [7]): does not affect reserpine-induced ptosis | reserpine-induced hypothermia (mice [7]): increases, at a dose of 512 mg/kg, the hypothermia-inducing effect of reserpine | motility reduced by habituation to the cage (mice [1]; 128 mg/kg): causes a resumption of the motor activity in animals habituated to their cage | oxotremorine-induced trembling (mice [8]): moderately reduces the intensity of the trembling movements due to oxotremorine | temperature (oxotremorine-induced hypothermia) (mice [8]; 512 mg/kg): increases, at a dose of 512 mg/kg, the hypothermia-inducing effect of reserpine and of oxotremorine | inter-group aggressiveness (mice [2]; mice, i.p.): moderately reduces the inter-group aggressiveness in mice | motor recovery after hypoxia/anoxia by pressure reduction (mice [10]): does not improve the motor recovery | spontaneous motility (mice [4]; mice, 512 mg/kg): very great reduction in the spontaneous motility | LD-O (maximum non-lethal dose) (mice [5]; mice, i.p.): greater than 1,024 mg/kg | symptoms / behaviour (mice [5]; mouse, in vivo, ip, 128 mg/kg): none of these symptoms is observed

O=C(CC(=O)Nc1ccc(Cl)cc1)NO [CRL 40,464, N-(4-Chlorophenyl)-carbamoyl-acetohydroxamic acid]
motility reduced by habituation to the cage (mice [1]; 128 mg/kg): causes a resumption of the motor activity in animals habituated to their cage | oxotremorine-induced trembling (mice [8]): moderately reduces the intensity of the trembling movements | temperature (oxotremorine-induced hypothermia) (mice [8]): aggravates the hypothermia due to oxotremorine | amphetamine-induced stereotypies (rats [3]; 256 mg/kg): reduces the intensity of amphetamine-induced stereotypies | spontaneous motility (mice [4]): reduces the spontaneous motility in mice | LD-O (maximum non-lethal dose) (mice [5]; mice, i.p.): greater than 1,024 mg/kg

O=C(CC[S+]([O-])C(c1ccccc1)c1ccccc1)NO (centres unmarked) [3-benzhydrylsulphinyl-propionohydroxamic acid]
usefulness in therapy (central nervous system [6]): of interest in the treatment of the central nervous system

O=C(CC(=O)N(C1CCCCC1)C1CCCCC1)NO [CRL 40,446, N,N-(Dicyclohexyl)-carbamoylacetohydroxamic acid]
reserpine-induced ptosis (mice [7]): ptosis induced by reserpine is not affected | reserpine-induced hypothermia (mice [7]): partially antagonises hypothermia induced by reserpine | motility reduced by habituation to the cage (mice [1]): does not cause any resumption in the motor activity of mice | inter-group aggressiveness (mice [2]; mice, i.p.): reduces, to a moderate degree, inter-group aggressiveness in mice | motor recovery after hypoxia/anoxia by pressure reduction (mice [10]): does not cause any resumption in the motor activity of mice | spontaneous motility (mice [4]; mice, 128 and 512 mg/kg): reduces the spontaneous motility in mice | mortality (mice [5]; mouse, in vivo): does not cause any mortality whatsoever
